In DBAASP:
Converted amounts (≈) assume the structure as drawn. One block for each compound: values may come before it.

Key:
Test in all cases: ≥ marks a high value that may be exact or a test limit, other limits are often not marked, values filed in µg/mL are converted to µM
[1] = tested on: Candida albicans ATCC 18804
[2] = tested on: Escherichia coli ATCC 25922
[3] = tested on: Staphylococcus aureus ATCC 25923
Bacillus cereus IFO 3457 = tested on: Bacillus cereus IFO 3457
[4] = tested on: Escherichia coli NIHJ JC-2
[5] = tested on: Bacillus subtilis ATCC 6633
[6] = tested on: Staphylococcus aureus Smith
Escherichia coli CE273 = tested on: Escherichia coli CE273
[7] = tested on: Escherichia coli ATCC 39188
[8] = tested on: Bacillus subtilis IFO 13722
Escherichia coli CR3 = tested on: Escherichia coli CR3
[9] = tested on: Escherichia coli JCM 1649
[10] = tested on: Staphylococcus aureus IFO 13276
[11] = tested on: Salmonella enterica subsp. enterica serovar Typhimurium ATCC 14028
[12] = tested on: Salmonella enterica subsp. enterica serovar Enteritidis ATCC 1891
[13] = tested on: Staphylococcus aureus FDA 209P JC-1
[14] = tested on: Staphylococcus aureus JCM 2431
[15] = tested on: Vibrio parahaemolyticus IFO12711
[16] = tested on: Pseudomonas aeruginosa KCTC 1637
[17] = tested on: Staphylococcus aureus KCTC 1621
[18] = tested on: Bacillus megaterium KCTC 1096
[19] = tested on: Escherichia coli KCTC 1682
Proteus vulgaris = tested on: Proteus vulgaris
[20] = tested on: Bacillus subtilis KCTC 1918
[21] = tested on: Staphylococcus epidermidis LY8
[22] = tested on: Salmonella typhimurium CCARM 8013
[23] = tested on: Salmonella typhimurium CCARM 8009
[24] = tested on: Bacillus subtilis CICC 24434
[25] = tested on: Salmonella typhimurium SL1344
Escherichia coli E44813 = tested on: Escherichia coli E44813
[26] = tested on: Proteus vulgaris KCTC 2433
[27] = tested on: Salmonella typhimurium KCTC 1926
[28] = tested on: Escherichia coli CCARM 1229
[29] = tested on: Escherichia coli ATCC 12795
[30] = tested on: Salmonella enterica subsp. enterica serovar Choleraesuis C78-1
[31] = tested on: Pseudomonas aeruginosa ATCC 15692
[32] = tested on: Listeria monocytogenes CICC 21533
Pasteurella multocida = tested on: Pasteurella multocida
[33] = tested on: Streptococcus pyogenes KCTC 3096
[34] = tested on: Escherichia coli CCARM 1238
[35] = tested on: Pasteurella multocida C48-3

MIC [1]: ≥ 128 µM
MIC [2]: 128 µM (≈ 393 µg/mL)
MIC [3]: > 128 µM
Compound: CC[C@H](C)[C@H](NC(=O)[C@H](C)NC(=O)[C@H](CCC(=O)O)NC(=O)[C@H](CO)NC(=O)[C@@H](N)Cc1ccccc1)C(=O)N[C@@H](CCCCN)C(=O)N[C@@H](CCCCN)C(=O)N[C@H](C(=O)N[C@H](C(=O)N[C@@H](CC(=O)O)C(=O)N[C@@H](Cc1ccccc1)C(=O)N[C@@H](CC(C)C)C(=O)NCC(=O)N[C@@H](CCC(=O)O)C(=O)NCC(=O)N[C@@H](CC(C)C)C(=O)N[C@@H](Cc1ccccc1)C(=O)N[C@@H](CC(=O)O)C(=O)N[C@H](C(=O)N[C@H](C(=O)N[C@@H](CCCCN)C(=O)N[C@@H](CCCCN)C(=O)N[C@H](C(=O)N[C@@H](C)C(=O)N[C@@H](CCC(=O)O)C(=O)N[C@@H](CO)C(=O)N[C@@H](Cc1ccccc1)C(=O)O)[C@@H](C)CC)[C@@H](C)CC)[C@@H](C)CC)[C@@H](C)CC)[C@@H](C)CC [FSEAIKKIIDFLGEGLFDIIKKIAESF]

MIC (Bacillus cereus IFO 3457): 3.1 µM (≈ 7.49 µg/mL)
MIC [4]: 3.1 µM (≈ 7.49 µg/mL)
MIC [5]: 3.1 µM (≈ 7.49 µg/mL)
MIC [6]: 6.3 µM (≈ 15.2 µg/mL)
MIC (Escherichia coli CE273): 3.1 µM (≈ 7.49 µg/mL)
MIC [7]: 3.1 µM (≈ 7.49 µg/mL)
MIC [8]: 6.3 µM (≈ 15.2 µg/mL)
MIC (Escherichia coli CR3): 6.3 µM (≈ 15.2 µg/mL)
MIC [9]: 6.3 µM (≈ 15.2 µg/mL)
MIC [10]: 25 µM (≈ 60.4 µg/mL)
MIC [11]: 6.3 µM (≈ 15.2 µg/mL)
MIC [12]: 6.3 µM (≈ 15.2 µg/mL)
MIC [13]: 1.6 µM (≈ 3.87 µg/mL)
MIC [14]: 12.5 µM (≈ 30.2 µg/mL)
Compound: CC[C@H](C)[C@H](NC(=O)CNC(=O)[C@H](CCCCN)NC(=O)[C@H](Cc1c[nH]c2ccccc12)NC(=O)[C@H](CC(N)=O)NC(=O)[C@@H](N)CCCCN)C(=O)N[C@@H](C)C(=O)NCC(=O)N[C@@H](CCSC)C(=O)N[C@@H](C)C(=O)N[C@@H](CCCCN)C(=O)N[C@@H](CCCCN)C(=O)N[C@@H](CC(C)C)C(=O)N[C@@H](CC(C)C)C(=O)NCC(=O)N[C@@H](CCCCN)C(=O)N[C@@H](CC(N)=O)C(=O)N[C@@H](Cc1c[nH]c2ccccc12)C(=O)N[C@@H](CCCCN)C(=O)N[C@@H](CC(C)C)C(=O)N[C@@H](CCSC)C(=O)O [KNWKGIAGMAKKLLGKNWKLM]
MIC [15]: ≥ 50 µM

MIC [16]: 12.5 µM (≈ 21.3 µg/mL)
MIC [17]: 12.5 µM (≈ 21.3 µg/mL)
MIC [18]: 3.12 µM (≈ 5.32 µg/mL)
MIC [19]: 12.5 µM (≈ 21.3 µg/mL)
MIC (Proteus vulgaris): 3.12 µM (≈ 5.32 µg/mL)
MIC [20]: 1.56 µM (≈ 2.66 µg/mL)
Compound: CC[C@H](C)[C@H](NC(=O)[C@H](CCCCN)NC(=O)[C@H](CCCCN)NC(=O)[C@H](Cc1ccccc1)NC(=O)[C@H](CC(C)C)NC(=O)[C@H](CCCCN)NC(=O)[C@H](Cc1c[nH]c2ccccc12)NC(=O)[C@@H](N)CCCCN)C(=O)N1CCC[C@H]1C(=O)N[C@@H](CC(C)C)C(=O)N[C@@H](CCCCN)C(=O)N[C@@H](CCCCN)C(=O)N[C@@H](Cc1ccccc1)C(N)=O [KWKLFKKIPLKKF]

MIC [21]: 8.44 µM (≈ 25 µg/mL)
MIC [16]: 1.56 µM (≈ 4.62 µg/mL)
MIC [22]: 4 µM (≈ 11.9 µg/mL)
MIC [17]: 3.12 µM (≈ 9.26 µg/mL)
MIC [2]: 4 µM (≈ 11.9 µg/mL)
MIC [23]: 4 µM (≈ 11.9 µg/mL)
MIC [24]: 0.527 µM (≈ 1.56 µg/mL)
MIC [25]: 1.05 µM (≈ 3.12 µg/mL)
MIC [19]: 1.56 µM (≈ 4.62 µg/mL)
MIC (Escherichia coli E44813): 8.44 µM (≈ 25 µg/mL)
MIC [26]: 16 µM (≈ 47.4 µg/mL)
MIC [27]: 1.77 µM (≈ 5.23 µg/mL)
MIC [28]: 4 µM (≈ 11.9 µg/mL)
MIC [20]: 1.56 µM (≈ 4.62 µg/mL)
MIC [29]: 0.4 µM (≈ 1.19 µg/mL)
MIC [31]: 8 µM (≈ 23.7 µg/mL)
MIC [32]: ≥ 42.2 µM
MIC (Pasteurella multocida): 6.8 µM (≈ 20.1 µg/mL)
MIC [33]: 1.56 µM (≈ 4.62 µg/mL)
MIC [34]: 2 µM (≈ 5.93 µg/mL)
MIC [3]: 0.0165 µM (≈ 0.0489 µg/mL)
MIC [35]: 1.05 µM (≈ 3.12 µg/mL)
Compound: CC[C@H](C)[C@H](NC(=O)[C@@H](NC(=O)[C@@H](N)CCCN=C(N)N)[C@@H](C)CC)C(=O)N[C@@H](CC(=O)O)C(=O)N[C@@H](CC(C)C)C(=O)N[C@@H](CC(C)C)C(=O)N[C@@H](Cc1c[nH]c2ccccc12)C(=O)N[C@@H](CCCN=C(N)N)C(=O)N[C@H](C(=O)N[C@@H](CCCN=C(N)N)C(=O)N[C@@H](CCCN=C(N)N)C(=O)N1CCC[C@H]1C(=O)N[C@@H](CCC(N)=O)C(=O)N[C@@H](CCCCN)C(=O)N1CCC[C@H]1C(=O)N[C@@H](CCCCN)C(=O)N[C@@H](Cc1ccccc1)C(=O)N[C@H](C(=O)N[C@H](C(=O)N[C@H](C(=O)N[C@@H](Cc1c[nH]c2ccccc12)C(=O)N[C@H](C(=O)N[C@@H](CCCN=C(N)N)C(=O)O)C(C)C)C(C)C)[C@@H](C)O)C(C)C)C(C)C [RIIDLLWRVRRPQKPKFVTVWVR]
MIC [30]: 0.527 µM (≈ 1.56 µg/mL)
